The record followed here is US10828290B2, “Thiazolecarboxamides and pyridinecarboxamide compounds useful as pim kinase inhibitors” (Incyte Corporation, priority 2013, dated 2020).

Where two headings read alike, the source gives them in different places.

What all share (type): biochemical
One assay addresses Pim-1 (Homo sapiens (Human), UniProt P11309). The assay can be described thus: Pim-1 kinase assay. To be noted: 1 mM ATP; class symbols; read-out: Pim1 IC50. As to the method:
Supplementation of the STOP buffer with beads and stopping the reactions were done under reduced light. Prior to the stopping reactions STOP buffer with beads was pre-incubated for 1 h in the dark at room temperature. After stopping the reactions, plates were incubated for 1 h in the dark at room temperature before reading on a PHERAstar FS plate reader (BMG Labtech) under reduced light.

Another assay deals with Pim-2 (Homo sapiens (Human), UniProt Q9P1W9). The experiment in a line: Pim-2 kinase assay. As to the method:
Pim-2 kinase assay—20 μL reactions were run in white 384 well polystyrene plates dotted with 0.8 μL compound/DMSO in the assay buffer (50 mM Tris, pH 7.5, 0.01% Tween-20, 5 mM MgCl2, 0.01% BSA, 5 mM DTT), containing 0.05 μM Fluorescein-labeled CREBtide peptide substrate (Invitrogen PV3508), 1 mM ATP, and 1 nM enzyme (Invitrogen PV3649) for 2 h at 25° C. Reactions were stopped by addition of 10 μL TR-FRET Dilution Buffer (Invitrogen PV3574) with 30 mM EDTA and 1.5 nM LanthaScreen Tb-CREB pSer133 antibody (Invitrogen PV3566). After 30 min. incubation at room temperature, plates were read on a PHERAstar FS plate reader (BMG Labtech).
Although the above in vitro assays are conducted at 1 mM ATP compounds can also be evaluated for potency and in vitro activity against PIM targets utilizing Km conditions, where the concentration of ATP is set to the Km value and the assay is more sensitive to PIM inhibition activity.

A further assay addresses Pim-3 (Homo sapiens (Human), UniProt Q86V86). The experiment in a line: Pim-3 kinase assay. The conditions noted are these: 1 mM ATP; class symbols; read-out: Pim3 IC50. As to the method:
Pim-1 and Pim-3 kinase assays—20 μL reactions were run in white 384 well polystyrene plates dotted with […] in the assay buffer (50 mM Tris, pH 7.5, 0.01% Tween-20, 5 mM MgCl2, 0.01% BSA, 5 mM DTT), containing 0.05 μM Biotin-labeled BAD peptide substrate (AnaSpec 62269), 1 mM ATP, and 2.5 pM (Pim-1, Invitrogen PV3503) or 1.25 pM (Pim-3, Millipore 14-738) enzyme for 1 h at 25° C. Reactions were stopped by addition of 10 μL STOP Buffer (150 mM Tris, pH=7.5, 150 mM NaCl, 75 mM EDTA, 0.01% Tween-20, 0.3% BSA) supplemented with Phospho-Bad (Ser112) Antibody (Cell Signaling 9291) diluted 666-fold, and Streptavidin donor beads (PerkinElmer 6760002) along with Protein-A acceptor beads (PerkinElmer 6760137) at 15 μg/mL each. Supplementation of the STOP buffer with beads and stopping the reactions were done under reduced light. Prior to the stopping reactions STOP buffer with beads was pre-incubated for 1 h in the dark at room temperature. After stopping the reactions, plates were incubated for 1 h in the dark at room temperature before reading on a PHERAstar FS plate reader (BMG Labtech) under reduced light.

Sequence of Pim-2 (Q9P1W9 whole entry): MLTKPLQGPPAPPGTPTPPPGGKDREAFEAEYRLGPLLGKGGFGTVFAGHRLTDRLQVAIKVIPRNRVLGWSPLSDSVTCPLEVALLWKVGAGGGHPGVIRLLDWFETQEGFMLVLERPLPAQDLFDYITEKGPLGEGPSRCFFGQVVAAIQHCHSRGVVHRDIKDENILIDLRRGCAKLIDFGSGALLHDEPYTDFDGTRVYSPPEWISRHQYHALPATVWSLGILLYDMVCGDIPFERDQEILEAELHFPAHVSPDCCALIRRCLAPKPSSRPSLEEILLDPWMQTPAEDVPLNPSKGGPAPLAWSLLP
Sequence of Pim-1 (P11309 whole entry): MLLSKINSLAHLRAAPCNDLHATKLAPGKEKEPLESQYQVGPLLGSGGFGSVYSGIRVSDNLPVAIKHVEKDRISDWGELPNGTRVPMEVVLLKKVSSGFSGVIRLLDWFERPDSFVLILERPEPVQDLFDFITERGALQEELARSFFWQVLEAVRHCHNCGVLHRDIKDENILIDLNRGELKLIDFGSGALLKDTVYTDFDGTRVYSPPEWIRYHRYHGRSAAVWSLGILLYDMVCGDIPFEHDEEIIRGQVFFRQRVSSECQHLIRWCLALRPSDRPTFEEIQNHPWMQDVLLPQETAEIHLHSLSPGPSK

Regarding `C[C@H]1CN(c2c(NC(=O)c3ccc(F)c(-c4c(F)cccc4F)n3)cnc3c2CCC3O)C[C@@H](N)[C@@H]1O` (mixture of isomers) [Example 37 (mixture of diastereoisomers), N-{4-[(3R,4R,5S)-3-Amino-4-hydroxy-5-methylpiperidin-1-yl]-7-hydroxy-6,7-dihydro-5H-cyclopenta[b]pyridin-3-yl}-6-(2,6-difluorophenyl)-5-fluoropyridine-2-carboxamide], the IC50 is at most 0.1 µM on Pim-1; at most 0.1 µM at Pim-2 (1 mM ATP, class symbols, read-out: Pim2 IC50); at most 0.1 µM at Pim-3.
In the case of `N[C@H]1CCCN(c2c(NC(=O)c3csc(-c4c(F)cccc4F)n3)cnc3ccccc23)C1` [Example 2, N-{4-[(3S)-3-Aminopiperidin-1-yl]quinolin-3-yl}-2-(2,6-difluorophenyl)-1,3-thiazole-4-carboxamide], the IC50 at Pim-2 (Km ATP concentration rather than 1 mM, read-out: Pim2 IC50 at Km ATP concentration) is 0.1 to 1 µM.
